We go through 10 compounds from patent publication US8906911B2, “Chemokine receptor antagonists” (AbbVie Inc., priority 2012, dated 2014).

In test [1] the target is CCR2 (Rattus norvegicus (Rat), UniProt O55193). The note with it: direct injection of MCP-1 in the spinal cord; cited from earlier work.
Test [2] concerns CCR2. The note with it: in vivo; cited from earlier work.
The target of test [3] is T1, human CCR2B (Homo sapiens (Human), UniProt P41597). Nature of the test: Inhibition of [125I]-labeled MCP-1 binding to hCCR2B (radioligand binding in CHO cells). The source says:
CHO cells expressing human CCR2B were generated as follows. cDNA for human CCR2B (cloned from human blood) was cloned into plasmid pcDNA3.1 (from Invitrogen). The resulting plasmids were separately transfected into CHO cells expressing human Gα16 (from Molecular Devices). […] CHO cells expressing rat CCR2 were generated as follows. cDNA for rat CCR2 (cloned from rat macrophage) was cloned into plasmid pEF-flag (from Chinese Academy of Science). The resulting plasmids were transfected into CHO cells expressing human Gα16 (from […]).
Inhibition of [^125I]-Labeled MCP-1 Binding to hCCR2B
Radioligand binding assays were performed in CHO cells expressing human CCR2B and Gα16 coupling protein. All compounds were dissolved in DMSO and assays run at a final DMSO concentration of 0.5% (v/v). [^125I]-labeled human MCP-1 was purchased from PerkinElmer. Unlabelled human MCP-1 was purchased from PeproTech.
Compounds were serially diluted in DMSO before diluting into assay buffer (25 mM HEPES, pH 7.4, 5 mM MgCl2, 1 mM CaCl2, 0.5% BSA) with cryo preserved CHO cells expressing human CCR2B and the Gα16 coupling protein (30×10^3/well) and [^125I]-MCP-1 (50 pM). The reaction was incubated at room temperature for 90 minutes before transferring to GF/C filter membrane (PerkinElmer) pre-treated with 0.3% polyethyleneimine for 2 hours at 4° C. The filter membrane was washed six times with ice cold wash buffer (25 mM HEPES, pH 7.4, 5 mM MgCl2, 1 mM CaCl2, 500 mM NaCl, 0.01% (m/v) azide), dried, and sealed in a RLB sample bag (Agilent Technologies) before adding 5.0 mL Microscint 20 to each bag. Membrane was counted on Microbeta counter where background binding was determined by the presence of 100 nM MCP-1 and control total binding was determined by addition of DMSO in place of the test compound. The radioactivity values (cpm) were used to calculate the percent inhibition at a given compound concentration and the data fit to a sigmoidal curve in a semi-log plot to determine IC50 values. The corresponding Ki value is calculated as follows:
Ki=IC50/(1+[radioligand]/Kd), where [radioligand] is the concentration of the label and Kd (dissociation constant) is determined in saturation experiment with different concentrations of labeled MCP-1.

For a further test, the target named is rat CCR2 (Rattus norvegicus (Rat), UniProt O55193). Kind of test: Inhibition of native agonist (rat MCP-1)-induced intracellular calcium release, calcium flux assay in CHO cells expressing rat CCR2 and Gα16. The note with it: read-out: rCCR2 Kb. In kind it is cell-based. An outline of the steps:
(§1)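 Compound added to Calcium 4 dye-loaded adherent cells (dye loading 60 min, 37° C., HEPES pH 7.4 buffer with probenecid), then agonist: human MCP-1 at 2 nM final for hCCR2B cells, rat MCP-1 at 4 nM final for rCCR2 cells. FLIPR fluorescence change gave IC50. Kb=IC50/(1+[agonist]/EC50). Final DMSO 0.25%.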
For orientation: A change in cytosolic calcium serves as a functional read-out for many receptors and channels.

Test [4] deals with T1, human CCR2B. Kind of test: Inhibition of native agonist (human MCP-1)-induced intracellular calcium release, calcium flux assay in CHO cells expressing human CCR2B and Gα16. In kind it is cell-based. The note with it: for IC50: read-out: hCCR2B IC50; for Kb: read-out: hCCR2B Kb. The gist of the method: as §1
[5] abbreviates: mean Ki, [125I]-MCP-1 50 pM, CHO cells expressing human CCR2B and Gα16.

As usually defined, the Ki is a measure of affinity in units of concentration, obtained from inhibition or displacement. Low values mean a stronger hold on the target, high ones a looser hold on the target. As a reminder, the IC50 is the concentration at which inhibition is half-maximal.

The structures appear in SMILES notation. Read-outs that look alike come from different tables or passages of the source.

Sequence of rat CCR2 (O55193 whole entry): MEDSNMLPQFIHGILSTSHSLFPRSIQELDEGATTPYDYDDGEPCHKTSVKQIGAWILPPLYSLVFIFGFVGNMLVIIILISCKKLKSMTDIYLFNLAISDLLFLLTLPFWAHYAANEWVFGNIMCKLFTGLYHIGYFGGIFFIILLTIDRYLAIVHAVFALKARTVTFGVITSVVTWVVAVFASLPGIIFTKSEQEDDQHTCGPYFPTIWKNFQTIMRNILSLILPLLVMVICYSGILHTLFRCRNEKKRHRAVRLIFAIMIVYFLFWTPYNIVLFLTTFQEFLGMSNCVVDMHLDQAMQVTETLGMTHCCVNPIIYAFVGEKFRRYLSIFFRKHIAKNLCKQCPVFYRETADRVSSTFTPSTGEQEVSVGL
T1 sequence (P41597 other isoform, or with tags, fused parts or gaps): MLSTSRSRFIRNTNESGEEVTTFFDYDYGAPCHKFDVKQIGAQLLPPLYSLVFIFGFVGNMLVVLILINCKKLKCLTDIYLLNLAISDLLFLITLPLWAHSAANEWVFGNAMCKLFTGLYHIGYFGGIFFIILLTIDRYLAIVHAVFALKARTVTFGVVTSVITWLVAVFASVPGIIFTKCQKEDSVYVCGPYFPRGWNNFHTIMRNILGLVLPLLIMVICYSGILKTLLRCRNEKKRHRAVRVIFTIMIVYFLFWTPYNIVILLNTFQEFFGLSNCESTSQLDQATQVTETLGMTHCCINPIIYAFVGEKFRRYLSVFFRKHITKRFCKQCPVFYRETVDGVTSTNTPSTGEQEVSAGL
Sequence of CCR2 (Rattus norvegicus (Rat), UniProt O55193) (O55193 whole entry): as the sequence (O55193 whole entry) above

On to `CCO[C@H]1CN(C2CCC(O)(c3ccc4c(c3)OCO4)CC2)C[C@@H]1NC(=O)CNC(=O)c1cccc(C(F)(F)F)c1` (stereo partly shown) [INCB3344], for which the “MCP-1 induced pronociception (thermal hyperalgesia and mechanical allodynia)” value at CCR2 [1] is listed as “blocked”.

As to `O=C1Nc2ccccc2C2(CCN(CCc3ccc(C(F)(F)F)cc3)CC2)O1` [RS102895], the “hyperalgesia induced by MCP-1 injection in the RVM” value in the test with CCR2 [2] was “reversed”.

On human CCR2B [3] (setting [5]), `CO[C@@H]1COCC[C@@H]1N(C)[C@@H]1C[C@H]2CCC[C@@]2(C(=O)N2C[C@@H]3C[C@H]2CN3c2ccc(C#N)c(C(F)(F)F)c2)C1` [Example 56, 1,5-anhydro-3-{[(2R,3aR,6aR)-3a-({(1S,4S)-5-[4-cyano-3-(trifluoromethyl)phenyl]-2,5-diazabicyclo[2.2.1]hept-2-yl}carbonyl)octahydropentalen-2-yl](methyl)amino}-2,3-dideoxy-4-O-methyl-D-erythro-pentitol] displayed a Ki of 32 nM. Also, the figures for the Kb at rat CCR2 and on human CCR2B [4] were 9 nM and 11 nM, respectively. Further, on human CCR2B [4] (calcium flux, human MCP-1 2 nM), the IC50 is 46 nM.

Turning to `CO[C@@H]1COCC[C@@H]1N[C@@H]1C[C@H]2CCC[C@@]2(C(=O)N2C[C@@H]3C[C@H]2CN3c2ccc(F)c(Cl)c2)C1` [Example 20, 1,5-anhydro-3-{[(2R,3aR,6aR)-3a-{[(1S,4S)-5-(3-chloro-4-fluorophenyl)-2,5-diazabicyclo[2.2.1]hept-2-yl]carbonyl}octahydropentalen-2-yl]amino}-2,3-dideoxy-4-O-methyl-D-erythro-pentitol], the Ki on human CCR2B [3] (setting [5]) worked out at 112 nM. In addition, the results for the Kb on rat CCR2 and at human CCR2B [4] were 18 nM and 45 nM, respectively. Besides, on human CCR2B [4] (calcium flux, human MCP-1 2 nM), the IC50 is 182 nM.

On to `CO[C@@H]1COCC[C@@H]1N[C@@H]1C[C@H]2CCC[C@@]2(C(=O)N2C[C@@H]3C[C@H]2CN3c2nc(C(F)(F)F)cs2)C1` [Example 30, 1,5-anhydro-2,3-dideoxy-4-O-methyl-3-{[(2R,3aR,6aR)-3a-({(1S,4S)-5-[4-(trifluoromethyl)-1,3-thiazol-2-yl]-2,5-diazabicyclo[2.2.1]hept-2-yl}carbonyl)octahydropentalen-2-yl]amino}-D-erythro-pentitol], for which, on human CCR2B [3] (setting [5]), affinity was put at a Ki of 831 nM. The figures for the Kb on rat CCR2 and on human CCR2B [4] were 4 nM and 23 nM, respectively. For the same compound, the IC50 on human CCR2B [4] (calcium flux, human MCP-1 2 nM) worked out at 95.5 nM.

As to `CO[C@@H]1COCC[C@@H]1N[C@@H]1C[C@H]2CCC[C@@]2(C(=O)N2C[C@@H]3C[C@H]2CN3c2cc(C(F)(F)F)ccc2C)C1` [Example 16, 1,5-anhydro-2,3-dideoxy-4-O-methyl-3-{[(2R,3aR,6aR)-3a-({(1S,4S)-5-[2-methyl-5-(trifluoromethyl)phenyl]-2,5-diazabicyclo[2.2.1]hept-2-yl}carbonyl)octahydropentalen-2-yl]amino}-D-erythro-pentitol], the Ki on human CCR2B [3] (setting [5]) was 199 nM. Further, the Kb at rat CCR2 stood at 7 nM. Also, at human CCR2B [4], the IC50 worked out at 106 nM and the Kb was 26 nM.

At human CCR2B [3], `CO[C@@H]1COCC[C@@H]1N[C@@H]1C[C@H]2CCC[C@@]2(C(=O)N2C[C@@H]3C[C@H]2CN3c2ccc(C#N)c(C(F)(F)F)c2)C1` (racemic) [Example 39, 1,5-anhydro-3-{[(2R,3aR,6aR)-3a-({(1S,4S)-5-[4-cyano-3-(trifluoromethyl)phenyl]-2,5-diazabicyclo[2.2.1]hept-2-yl}carbonyl)octahydropentalen-2-yl]amino}-2,3-dideoxy-4-O-methyl-D-erythro-pentitol] yielded a Ki of 66 nM. The figures for the Kb on rat CCR2 and at human CCR2B [4] were 3 nM and 14 nM, respectively. At human CCR2B [4] (calcium flux, human MCP-1 2 nM), the IC50 worked out at 55.3 nM.

In the case of `CO[C@@H]1COCC[C@@H]1N[C@@H]1C[C@H]2CCC[C@@]2(C(=O)N2C[C@@H]3C[C@H]2CN3c2ccc(Cl)c(C#N)c2)C1` [Example 47, 1,5-anhydro-3-{[(2R,3aR,6aR)-3a-{[(1S,4S)-5-(4-chloro-3-cyanophenyl)-2,5-diazabicyclo[2.2.1]hept-2-yl]carbonyl}octahydropentalen-2-yl]amino}-2,3-dideoxy-4-O-methyl-D-erythro-pentitol], the Ki at human CCR2B [3] (setting [5]) was 77 nM. Further, the Kb on rat CCR2 is 4 nM. Also, on human CCR2B [4], the IC50 came out at 49.8 nM and the Kb worked out at 12 nM.

For the compound `CO[C@@H]1COCC[C@H]1N[C@@H]1C[C@H]2CCC[C@@]2(C(=O)N2C[C@@H]3C[C@H]2CN3c2cc(C(F)(F)F)ccn2)C1` [Example 1, 1,5-anhydro-2,3-dideoxy-4-O-methyl-3-{[(2R,3aR,6aR)-3a-({(1S,4S)-5-[4-(trifluoromethyl)pyridin-2-yl]-2,5-diazabicyclo[2.2.1]hept-2-yl}carbonyl)octahydropentalen-2-yl]amino}-D-threo-pentitol], the affinity on human CCR2B [3] (setting [5]) corresponds to a Ki of 32 nM. In addition, the Kb was determined as 23 nM at rat CCR2 and 14 nM at human CCR2B [4]. For the same compound, at human CCR2B [4] (calcium flux, human MCP-1 2 nM), the IC50 turned out to be 54.9 nM.

Turning to `C[C@H]1COCC[C@@H]1N[C@@H]1C[C@H]2CCC[C@@]2(C(=O)N2C[C@@H]3C[C@H]2CN3c2cc(C(F)(F)F)ccn2)C1` [Example 61, [(2R,3aR,6aR)-2-{[(3R,4S)-3-methyltetrahydro-2H-pyran-4-yl]amino}hexahydropentalen-3a(1H)-yl]{(1S,4S)-5-[4-(trifluoromethyl)pyridin-2-yl]-2,5-diazabicyclo[2.2.1]hept-2-yl}methanone], at human CCR2B [3] (setting [5]), the Ki stood at 69 nM. The Kb on rat CCR2 is 30 nM; at human CCR2B [4], 25 nM. Also, the IC50 at human CCR2B [4] (calcium flux, human MCP-1 2 nM) was determined as 100 nM.
